# Measurements as given in patent US20040086886A1, “Polymorphisms associated with cardiac arrythmia” (priority 2003, published 2004).
# Key:
# [1] = molecular target: Q9E-MiRP1 channels (Homo sapiens, UniProt Q12809+Q9Y6J6, Q9E); details: Abbott et al. (1999); cited from earlier work
# [2] = molecular target: wild type MiRP1/HERG channels (Homo sapiens, UniProt Q12809+Q9Y6J6); assay: cell-based
# [3] = molecular target: wild type MiRP1/HERG channels (Homo sapiens, UniProt Q12809); assay: cell-based; details: Ki (equilibrium inhibition constant), wild type MiRP1
# [4] = molecular target: I57T-MiRP1/HERG channels (Homo sapiens, UniProt Q12809); assay: cell-based
# Chain of I57T-MiRP1/HERG channels (Q12809 whole entry): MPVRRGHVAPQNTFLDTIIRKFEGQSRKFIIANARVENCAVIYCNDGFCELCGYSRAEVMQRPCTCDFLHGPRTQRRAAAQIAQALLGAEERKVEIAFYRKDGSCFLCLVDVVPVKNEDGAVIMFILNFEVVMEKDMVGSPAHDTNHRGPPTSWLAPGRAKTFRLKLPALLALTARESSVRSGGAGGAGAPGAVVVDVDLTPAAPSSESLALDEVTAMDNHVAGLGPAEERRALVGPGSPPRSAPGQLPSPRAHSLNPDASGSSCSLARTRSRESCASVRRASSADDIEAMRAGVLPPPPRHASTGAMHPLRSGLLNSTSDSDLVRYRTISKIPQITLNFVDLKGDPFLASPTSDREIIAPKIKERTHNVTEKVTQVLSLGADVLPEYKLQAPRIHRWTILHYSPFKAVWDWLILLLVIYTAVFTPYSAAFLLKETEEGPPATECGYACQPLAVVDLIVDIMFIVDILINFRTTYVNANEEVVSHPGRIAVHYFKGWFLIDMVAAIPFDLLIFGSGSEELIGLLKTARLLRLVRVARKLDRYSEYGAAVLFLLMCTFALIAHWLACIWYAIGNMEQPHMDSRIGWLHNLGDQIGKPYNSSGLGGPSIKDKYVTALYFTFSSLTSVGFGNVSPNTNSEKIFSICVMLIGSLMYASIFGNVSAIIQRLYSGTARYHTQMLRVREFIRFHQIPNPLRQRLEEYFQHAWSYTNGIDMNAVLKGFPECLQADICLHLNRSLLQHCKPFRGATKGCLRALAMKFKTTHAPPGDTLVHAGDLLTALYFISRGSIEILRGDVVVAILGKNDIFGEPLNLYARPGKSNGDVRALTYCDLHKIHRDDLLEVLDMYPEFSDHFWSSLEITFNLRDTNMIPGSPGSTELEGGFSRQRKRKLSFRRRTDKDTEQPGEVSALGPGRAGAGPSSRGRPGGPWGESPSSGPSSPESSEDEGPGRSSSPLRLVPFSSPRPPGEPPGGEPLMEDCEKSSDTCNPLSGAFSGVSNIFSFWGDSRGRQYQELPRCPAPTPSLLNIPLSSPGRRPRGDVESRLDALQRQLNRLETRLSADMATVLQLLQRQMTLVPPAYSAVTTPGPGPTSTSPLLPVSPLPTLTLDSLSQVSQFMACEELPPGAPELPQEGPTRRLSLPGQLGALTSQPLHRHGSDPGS
# Chain of I57T-MiRP1/HERG channels (Q9Y6J6 whole entry I57T, further chain): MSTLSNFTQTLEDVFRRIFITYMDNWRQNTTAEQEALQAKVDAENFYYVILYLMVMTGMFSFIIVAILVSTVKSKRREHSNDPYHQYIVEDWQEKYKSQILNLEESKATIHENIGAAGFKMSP
# Chain of Q9E-MiRP1 channels (Q9Y6J6 whole entry Q9E): as the sequence (Q9Y6J6 whole entry I57T, further chain) above, with Q9E, T57I counted along it
# Chain of Q9E-MiRP1 channels (Q12809 whole entry): as the sequence (Q12809 whole entry) above
# Chain of wild type MiRP1/HERG channels (Homo sapiens, UniProt Q12809) (Q12809 whole entry): as above
# Chain of wild type MiRP1/HERG channels (Homo sapiens, UniProt Q12809) (Q9Y6J6 whole entry, further chain): as the sequence (Q9Y6J6 whole entry I57T, further chain) above, with T57I counted along it
# Chain of wild type MiRP1/HERG channels (Homo sapiens, UniProt Q12809+Q9Y6J6) (Q12809 whole entry): as the sequence (Q12809 whole entry) above
# Chain of wild type MiRP1/HERG channels (Homo sapiens, UniProt Q12809+Q9Y6J6) (Q9Y6J6 whole entry): as the sequence (Q9Y6J6 whole entry I57T, further chain) above, with T57I counted along it
SMILES,Sensitivity of Q9E-MiRP1 channels to drug inhibition relative to wild type [1],Level for half-maximal inhibition relative to plasma (therapeutic) levels in patients [2],Ki [3] [µM],Ki [4] [µM]
CC[C@H]1OC(=O)[C@H](C)[C@@H](O[C@H]2C[C@@](C)(OC)[C@@H](O)[C@H](C)O2)[C@H](C)[C@@H](O[C@@H]2O[C@H](C)C[C@H](N(C)C)[C@H]2O)[C@](C)(OC)C[C@@H](C)C(=O)[C@H](C)[C@@H](O)[C@]1(C)O [clarithromycin],three-fold more sensitive,–,–,–
O=c1[nH]c2ccccc2n1CCCN1CCN(C(c2ccccc2)c2ccccc2)CC1 [oxatomide],–,close to their therapeutic concentrations,0.422,1.88
